The values below come from ChEMBL document CHEMBL1154198, “Chemical genetics of Plasmodium falciparum” (Nature, 2010).

Assay [1] relates to Plasmodium falciparum. In words: ST_JUDE: Plasmodium falciparum 3D7 EC50 (uM) as measured by SYBR green dye. The class given is functional, organism-based.
Assay [2] relates to Plasmodium falciparum. In words: ST_JUDE: Plasmodium falciparum K1 EC50 (uM) as measured by SYBR green dye. The class given is functional, organism-based.

As to `Cc1cc(C)c2nc(NC(=O)CSc3ccc(F)cc3)sc2c1`, the EC50 in the assay on Plasmodium falciparum [1] and in the assay with Plasmodium falciparum [2] was more than 15 µM each time.
On to `CCCN1CCC(NC(=S)Nc2ccc([N+](=O)[O-])cc2)CC1`, for which the EC50 in the assay on Plasmodium falciparum [1] and in the assay with Plasmodium falciparum [2] was more than 15 µM each time.
Regarding `Cc1ccc2c(c1)C=C/C(=C\c1cccc[n+]1C)N2C`, the results for the EC50 in the assay with Plasmodium falciparum [1] and in the assay on Plasmodium falciparum [2] were 0.19 µM and 0.138 µM, respectively.
For `CC(C)CC(=O)NC(c1ccc(Cl)cc1Cl)c1ccc2cccnc2c1O` (centres undefined), in that order: more than 15 µM and more than 15 µM.
For `COc1ccc(OC)c(N2C(=O)c3cccc4c([N+](=O)[O-])ccc(c34)C2=O)c1`, the concentration giving a half-maximal response (EC50) in the assay with Plasmodium falciparum [1] and in the assay on Plasmodium falciparum [2] was more than 15 µM each time.
Consider `COc1ccc(OC)c(NC(=O)CSc2nc(-c3ccccc3Cl)ns2)c1`, for which the half-maximal effective concentration (EC50) with Plasmodium falciparum [1] turned out to be 1.25 µM; with Plasmodium falciparum [2], 1.42 µM.
On the same counts, the results for `CCOC(=O)N1CCN(C(=O)Nc2cc(C(F)(F)F)cc(C(F)(F)F)c2)CC1` are 2.05 µM and more than 15 µM.
On the same counts, the results for `CCOCC(=O)Nc1cc(C(F)(F)F)ccc1Oc1cccc(Br)c1` are 0.83 µM and more than 15 µM.
On the same counts, the results for `COc1ccc(C2N(C)c3ccccc3N2C)cc1` are more than 15 µM and more than 15 µM.
As to `CC(C)(C)c1ccc(C(=O)Nc2c3c(nn2-c2ccc([N+](=O)[O-])cc2)CS(=O)(=O)C3)cc1`, the results for the 50% effective concentration (EC50) in the assay on Plasmodium falciparum [1] and in the assay on Plasmodium falciparum [2] were 10.6 µM and 3.09 µM, respectively.
For the compound `COc1ccc2c(c1OC)C(=O)N1c3ccccc3N=C(c3ccc(C)cc3)CC21` (centres undefined), the 50% effective concentration (EC50) in the assay with Plasmodium falciparum [1] turned out to be 2.53 µM; in the assay on Plasmodium falciparum [2], 1.7 µM.
In the case of `CCN(CC)c1cc(C)c2cc(NC(=O)c3cccc(OC)c3)ccc2n1`, the EC50 with Plasmodium falciparum [1] is 4.77 µM; with Plasmodium falciparum [2], more than 15 µM.
For `Cc1cccc(NC(=O)c2cc3ccccc3cc2O)c1`, in that order: 1.15 µM and 0.602 µM.
For `COc1ccc(C(=O)CSc2nnc(Cc3cc(O)nc(O)n3)n2-c2ccc(Cl)cc2)cc1`, in that order: more than 15 µM and more than 15 µM.
On the same counts, the results for `CC(C)OCCNC(=O)CC1C(=O)NCCN1Cc1cccc(C(F)(F)F)c1` (centres undefined) are more than 15 µM and more than 15 µM.
Consider `OCCNc1nc(Nc2ccc(Cl)c(Cl)c2)nc2ccccc12`, for which the half-maximal effective concentration (EC50) is more than 15 µM with Plasmodium falciparum [1] and 4.32 µM with Plasmodium falciparum [2].
For `CCOC(=O)c1c(CN(C)C)n(-c2ccccc2)c2cc(Br)c(O)cc12`, in that order: 4.14 µM and more than 15 µM.
For `Cc1cc(C)c[n+](C(C)C(=O)c2ccc(-c3ccccc3)cc2)c1` (centres undefined), in that order: 2.86 µM and 2.53 µM.
Take `CC(=O)N(C1=C(N(C)C)C(=O)c2ccccc2C1=O)c1ccc(C(=O)O)cc1`: the EC50 in the assay with Plasmodium falciparum [1] was determined as 1.3 µM; in the assay with Plasmodium falciparum [2], 1.9 µM.
For `S=C(N/N=C(/c1ccccc1)c1ccccn1)Nc1ccccc1`, in that order: 0.317 µM and 0.48 µM.
For `CCCOC(=O)c1cccc(NC(=O)C23CCC(C)(C(=O)O2)C3(C)C)c1` (centres undefined), in that order: more than 15 µM and more than 15 µM.
On to `Cc1ccc(/C=C2\Oc3c(ccc(O)c3CN3CCCCC3)C2=O)cc1`, for which the values for the EC50 with Plasmodium falciparum [1] and in the assay with Plasmodium falciparum [2] were 2.89 µM and 0.28 µM, respectively.
On the same counts, the results for `Cc1onc(-c2ccccc2)c1C(=O)Nc1cccc(Br)c1` are more than 15 µM and more than 15 µM.
For `CCC1=[N+](C)c2cccc3cccc(c23)N1C`, in that order: 5.13 µM and 4.41 µM.
On to `Cc1ccc(O)c(Nc2nc(-c3ccccc3)nc3ccccc23)c1`, for which the 50% effective concentration (EC50) in the assay with Plasmodium falciparum [1] stood at 3.83 µM; in the assay on Plasmodium falciparum [2], 1.31 µM.
For `CC1Cc2nc(SCC(=O)Nc3cccc(F)c3)n(C)c(=O)c2S1` (centres undefined), in that order: 1.62 µM and 2.07 µM.
On the same counts, the results for `CCOC(=O)C1=C(c2ccccc2)N=C(S)NC1c1cc(Cl)ccc1OC` (centres undefined) are more than 15 µM and more than 15 µM.
With `CCOC(=O)c1cnc2ccc(OCC)cc2c1NCCCN1CCOCC1`, the results for the half-maximal effective concentration (EC50) in the assay on Plasmodium falciparum [1] and in the assay on Plasmodium falciparum [2] were 1.08 µM and 2.36 µM, respectively.
Regarding `O=C1C2CC=C(Cl)CC2C(=O)N1CCCCO` (centres undefined), the values for the EC50 in the assay on Plasmodium falciparum [1] and in the assay with Plasmodium falciparum [2] were 3.32 µM and 1.47 µM, respectively.
On the same counts, the results for `CC1(C)N=C(N)N=C(N)N1c1ccc(F)cc1` are 0.095 µM and 2.31 µM.
Take `N=C(N)N/N=C/c1ccc(OCc2ccc(Cl)cc2Cl)cc1`: the EC50 in the assay on Plasmodium falciparum [1] was found to be 4.9 µM; with Plasmodium falciparum [2], 4.27 µM.
On the same counts, the results for `CCc1ccc(NC(=O)C2c3cc(OC)c(OC)cc3C(=O)N(C)C2c2cccs2)cc1` (centres undefined) are 3.54 µM and 3.8 µM.
On the same counts, the results for `COc1ccc2cc(C(=O)C3CCCN(C4CCN(C(C)C)CC4)C3)ccc2c1` (centres undefined) are 7.92 µM and more than 15 µM.
For `CCN(C(=O)Nc1ccccc1OC)c1nc(-c2ccccc2)cs1`, in that order: more than 15 µM and more than 15 µM.
Turning to `CC(C)CN(CC(C)C)S(=O)(=O)c1ccc(C(=O)Nc2nc(-c3ccccn3)cs2)cc1`, the values for the concentration for a half-maximal effect (EC50) in the assay on Plasmodium falciparum [1] and in the assay on Plasmodium falciparum [2] were more than 15 µM and 3.28 µM, respectively.
On the same counts, the results for `CCCc1cc(O)nc(-n2nc(C)cc2NC(=O)c2ccc(C)cc2)n1` are more than 15 µM and more than 15 µM.
As for `CCc1c(C)nc(-n2nc(C)cc2NC(=O)c2cccc(Br)c2)nc1O`, the EC50 in the assay with Plasmodium falciparum [1] and in the assay on Plasmodium falciparum [2] was more than 15 µM in each case.
For the compound `C=CC[n+]1c(/C=C2\C=CC=CN2CC)ccc2cc(C)ccc21`, the results for the concentration giving a half-maximal response (EC50) in the assay on Plasmodium falciparum [1] and in the assay on Plasmodium falciparum [2] were 2.56 µM and 2.53 µM, respectively.
For `FC(F)(F)c1cccc(NC(=S)Nc2cccc(Cl)c2)c1`, in that order: 3.79 µM and 2.95 µM.
On the same counts, the results for `COc1cccc(CNC(=O)C2c3ccccc3C(=O)N(CC(C)C)C2c2cccs2)c1` (centres undefined) are 5.27 µM and 4.13 µM.
For `Cc1ccc2ccc(C(Nc3ccccn3)c3ccccc3Br)c(O)c2n1` (centres undefined), in that order: 1.49 µM and 1.32 µM.
In the case of `COc1ccc(-c2cc(=O)n(-c3ccc([N+](=O)[O-])cc3)[nH]2)cc1`, the concentration giving a half-maximal response (EC50) with Plasmodium falciparum [1] and with Plasmodium falciparum [2] was more than 15 µM each time.
`CC(C)c1ccc(NC(=O)CSc2n[nH]c(-c3ccccc3Cl)n2)cc1`: the figures for the EC50 with Plasmodium falciparum [1] and with Plasmodium falciparum [2] were 4.78 µM and 4.96 µM, respectively.
For `COc1ccc2nc(N(Cc3cccnc3)C(=O)Cc3ccccc3)sc2c1`, in that order: 5.44 µM and 3.67 µM.
As for `CCOC(=O)N1CCC(NC(=O)Nc2cc(C(F)(F)F)cc(C(F)(F)F)c2)CC1`, the figures for the concentration for a half-maximal effect (EC50) in the assay with Plasmodium falciparum [1] and in the assay with Plasmodium falciparum [2] were 0.992 µM and 1.29 µM, respectively.
For `CCc1ccc(Oc2c(C(F)(F)F)oc3c(CN4CCCCC4)c(O)ccc3c2=O)cc1`, in that order: 1.61 µM and 0.558 µM.
As to `COc1ccc(C2C(C#N)=C(N)Oc3c2ccc2ccccc32)cc1OC` (centres undefined), the results for the EC50 in the assay with Plasmodium falciparum [1] and in the assay with Plasmodium falciparum [2] were 1.45 µM and 8.61 µM, respectively.
On the same counts, the results for `Cc1ccnc(N2C(=O)c3ccccc3C2Nc2ccccc2C)c1` (centres undefined) are more than 15 µM and more than 15 µM.
On the same counts, the results for `CC(=O)N(C)C1=C(N2CCOCC2)C(=O)c2ccccc2C1=O` are 2.72 µM and 4.78 µM.
On the same counts, the results for `Cc1ccnc(NC(c2cccc(OCc3ccccc3)c2)c2ccc3cccnc3c2O)c1` (centres undefined) are 1.81 µM and 2.93 µM.
In the case of `COc1ccc(-c2onc(C(F)(F)F)c2Oc2cnn(-c3ccccc3)c2)c(O)c1`, the half-maximal effective concentration (EC50) turned out to be 1.81 µM in the assay on Plasmodium falciparum [1] and 1.61 µM with Plasmodium falciparum [2].
For `Cc1cc(N(C)C)nc(Nc2ccc(NS(=O)(=O)c3cc(C(C)C)ccc3C)cc2)n1`, in that order: 1.55 µM and 3.35 µM.

The term EC50 denotes the concentration at which the effect is half-maximal. Higher therefore signals a less potent agent.
